Assay results reported in patent US8394796B2, “Bicyclic pyrimidine PI3K inhibitor compounds selective for P110 delta, and methods of use” (Genentech, Inc., priority 2009, dated 2013).
Where two headings read alike, the source gives them in different places.

How the values were obtained:
[1] = test system: CD69 positive cells that are also CD20 positive, stimulated by anti-IgM, in human whole blood; assay: CD69 whole blood assay (human whole blood, anti-IgM stimulated); format: cell-based; conditions: read-out: IC50 in the CD69 Whole Blood Assay
Procedure: Human blood is obtained from healthy volunteers, with the following restrictions: 1 week drug-free, non-smokers. Blood (approximately 20 mls to test 8 compounds) is collected by venipuncture into Vacutainer tubes with sodium heparin.
Solutions of Formula I compounds at 1000 or 2000 μM in PBS (20×), are diluted by three-fold serial dilutions in 10% DMSO in PBS for a nine point dose-response curve. An aliquot of 5.5 μl of each compound is added in duplicate to a 2 ml 96-well plate; 5.5 μl of 10% DMSO in PBS is added as control and no-stimulus wells. Human whole blood—HWB (100 μl) is added to each well. After mixing the plates are incubated at 37° C., 5% CO2, 100% humidity for 30 minutes. Goat F(ab′)2 anti-human IgM (10 μl of a […] solution, 50 μg/ml final) is added to each well (except the no-stimulus wells) with mixing and the plates are incubated for an additional 20 hours. At the end of the 20 hour incubation, samples are incubated with florescent labeled antibodies for 30 minutes, at 37° C., 5% CO2, 100% humidity. Include induced control, unstained and single stains for compensation adjustments and initial voltage settings. Samples are then lysed with Pharmingen Lyse according to the manufacturer's instructions. Samples are then transferred to a 96 well plate suitable to be run on the AMS 96 well system on the BD Calibur FACs machine. Data acquired and Mean Fluorescence Intensity values were obtained using Cell Quest Software. Results are initially analyzed by FACS analysis software (Flow Jo). […] The IC50 values are calculated by Activityl)ase using Xlfit version 3, equation 201.

[2] = target: T1, p110δ/p85α (PI3K p110 delta) (Homo sapiens, UniProt O00329); assay: PI3K isoform inhibition assay (fluorescence polarization PIP3 displacement; alternatively radiometric), p110 delta; format: biochemical; conditions: for IC50: PI3K p110 delta binding IC50; for IC50 p110 alpha/IC50 p110 delta: delta/alpha selectivity: ratio of p110 alpha IC50 to p110 delta IC50
T1 construct: purchased Upstate Group, Millipore; Dundee, UK
T1 sequence (O00329 whole entry, canonical isoform): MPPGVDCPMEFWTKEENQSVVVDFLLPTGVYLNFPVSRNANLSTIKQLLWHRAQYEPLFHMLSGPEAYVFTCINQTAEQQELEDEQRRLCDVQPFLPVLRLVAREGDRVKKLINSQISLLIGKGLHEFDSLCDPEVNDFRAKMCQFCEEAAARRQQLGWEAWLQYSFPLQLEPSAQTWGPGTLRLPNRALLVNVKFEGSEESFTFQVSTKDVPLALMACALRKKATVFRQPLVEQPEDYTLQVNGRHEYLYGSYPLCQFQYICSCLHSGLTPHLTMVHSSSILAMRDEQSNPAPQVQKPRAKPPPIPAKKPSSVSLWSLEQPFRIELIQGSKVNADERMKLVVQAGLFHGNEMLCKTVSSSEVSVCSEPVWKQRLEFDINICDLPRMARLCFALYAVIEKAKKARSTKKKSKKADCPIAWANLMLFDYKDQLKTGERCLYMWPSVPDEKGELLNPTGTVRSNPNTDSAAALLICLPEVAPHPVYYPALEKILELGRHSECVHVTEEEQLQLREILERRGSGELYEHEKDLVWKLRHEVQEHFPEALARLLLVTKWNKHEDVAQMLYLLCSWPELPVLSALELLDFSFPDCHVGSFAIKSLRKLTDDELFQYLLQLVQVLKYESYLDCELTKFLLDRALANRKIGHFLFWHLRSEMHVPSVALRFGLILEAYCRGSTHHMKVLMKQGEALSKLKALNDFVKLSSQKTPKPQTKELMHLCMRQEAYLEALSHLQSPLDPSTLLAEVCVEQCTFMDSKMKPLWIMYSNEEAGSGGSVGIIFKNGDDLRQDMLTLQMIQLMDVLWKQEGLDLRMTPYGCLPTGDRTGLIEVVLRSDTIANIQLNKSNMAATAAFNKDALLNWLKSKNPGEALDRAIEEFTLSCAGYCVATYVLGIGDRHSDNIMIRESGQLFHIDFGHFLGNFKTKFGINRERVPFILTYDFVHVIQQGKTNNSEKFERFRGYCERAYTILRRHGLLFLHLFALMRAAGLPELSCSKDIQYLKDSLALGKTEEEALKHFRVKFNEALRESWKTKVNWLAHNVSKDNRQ
T1 sequence (P27986 whole entry partner, canonical isoform): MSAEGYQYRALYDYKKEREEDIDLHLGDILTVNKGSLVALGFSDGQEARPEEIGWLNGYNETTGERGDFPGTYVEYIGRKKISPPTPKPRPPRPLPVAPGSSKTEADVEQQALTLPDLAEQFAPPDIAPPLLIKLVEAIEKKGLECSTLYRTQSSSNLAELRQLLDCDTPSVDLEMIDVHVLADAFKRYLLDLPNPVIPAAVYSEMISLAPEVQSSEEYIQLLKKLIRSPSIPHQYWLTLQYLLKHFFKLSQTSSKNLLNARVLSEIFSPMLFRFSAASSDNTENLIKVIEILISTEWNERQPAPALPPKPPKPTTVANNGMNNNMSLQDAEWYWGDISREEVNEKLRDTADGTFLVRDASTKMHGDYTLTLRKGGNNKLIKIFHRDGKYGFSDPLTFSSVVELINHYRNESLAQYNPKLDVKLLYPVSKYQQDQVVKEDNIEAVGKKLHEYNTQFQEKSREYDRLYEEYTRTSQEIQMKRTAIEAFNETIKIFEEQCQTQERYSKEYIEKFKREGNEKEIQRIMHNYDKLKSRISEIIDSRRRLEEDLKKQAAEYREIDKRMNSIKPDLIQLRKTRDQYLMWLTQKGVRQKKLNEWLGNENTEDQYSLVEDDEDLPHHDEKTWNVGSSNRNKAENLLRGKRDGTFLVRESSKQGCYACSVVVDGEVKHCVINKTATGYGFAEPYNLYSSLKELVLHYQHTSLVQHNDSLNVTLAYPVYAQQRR
Procedure: PI3K Isoform Inhibition Assay (p110 Alpha, Beta, Gamma, Delta: α, β, γ, δ)
PI3K enzymatic activity was assayed by measuring the amount of product phosphatidylinositol 3,4,5-phosphate (PIP3) formed from substrate 4,5 phosphatidylinositol 4,5-phosphate (PIP2) using a fluorescence polarization displacement assay. The decrease in fluorescence polarization of a fluorescent PIP3 probe is measured as it is displaced from a PIP3-binding protein GRP-1 detector by PI3K-catalyzed product. […] The kinase reactions were initiated by the addition of 40 ng/mL p110α/p85α, 300 ng/mL p110β/p85α, 40 ng/mL p110γ, or 40 ng/mL p110δ/p85α (Upstate Group, Millipore; Dundee, UK), and 10 μM PIP2 (Echelon Biosciences) to the wells. […] After 60 minutes of incubation at room temperature to allow equilibration of labeled and unlabeled PIP3 binding, the parallel and perpendicular components of the fluorescence emissions from each sample were measured at an excitation wavelength of 530 nm and an emission wavelength of 590 nm using an Envision fluorescent plate reader with a rhodamine filter (PerkinElmer Life and Analytical Sciences; Wellesley, Mass.). The assay is capable of detecting 0.1-2.0 μM PIP3 product. The IC50 values were obtained by fitting the dose-dependent inhibition data to a 4-parameter equation using Assay Explorer software (MDL, San Ramon, Calif.).
The Formula I compound was serially diluted in 100% DMSO. The kinase reaction was incubated for 1 h at room temperature, and the reaction was terminated by the addition of PBS. IC50 values were subsequently determined using sigmoidal dose-response curve fit (variable slope).
HT baculovirus expression system (GIBCO/BRL), and then purified for use in biochemical assays. The four Class I PI 3-kinases are cloned into baculovirus vectors as follows: […]

[3] = concentration decreasing by 50% the percent CD69 positive of CD20 positive cells stimulated by anti-IgM, 20 hours

Structure (SMILES) | IC50 [1, 3] [nM] | IC50 [2] [nM] | IC50 p110 alpha/IC50 p110 delta [2] | IC50 ([1]; 20 h) [nM]
CNc1nc2ccccc2n1-c1nc(N2CCOCC2)c2nc(CN3CCN(C(C)(C)C)CC3)n(C)c2n1 [Example 428, 1-(8-((4-tert-butylpiperazin-1-yl)methyl)-9-methyl-6-morpholino-9H-purin-2-yl)-N-methyl-1H-benzo[d]imidazol-2-amine] | 34.2 | – | – | –
Cn1c(CN2CCN(C(C)(C)C(N)=O)CC2)nc2c(N3CCOCC3)nc(-n3c(C4CC4)nc4ccccc43)nc21 [Example 438, 2-(4-((2-(2-cyclopropyl-1H-benzo[d]imidazol-1-yl)-9-methyl-6-morpholino-9H-purin-8-yl)methyl)piperazin-1-yl)-2-methylpropanamide] | 65.9 | – | – | –
CN(C)C1CCN(Cc2cc3nc(-c4ccc(O)c5nccn45)nc(N4CCOCC4)c3s2)CC1 [Example 689, 5-(6-((4-(dimethylamino)piperidin-1-yl)methyl)-4-morpholinothieno[3,2-d]pyrimidin-2-yl)imidazo[1,2-a]pyridin-8-ol] | – | 25.8 | 23 | 29
CC(C)c1nc2ccccc2n1-c1nc(N2CCOCC2)c2nc(CN3CCN(C(C)(C)CO)CC3)[nH]c2n1 [Example 490, 2-(4-((2-(2-isopropyl-1H-benzo[d]imidazol-1-yl)-6-morpholino-9H-purin-8-yl)methyl)piperazin-1-yl)-2-methylpropan-1-ol] | 38.3 | 2.38 | 111 | –
Cn1c(CN2CCN(C(C)(C)C)CC2)nc2c(N3CCOCC3)nc(-n3c(C4CC4)nc4ccccc43)nc21 [Example 403, 4-(8-((4-tert-butylpiperazin-1-yl)methyl)-2-(2-cyclopropyl-1H-benzo[d]imidazol-1-yl)-9-methyl-9H-purin-6-yl)morpholine] | 22 | – | – | –
Cc1nc2ccccc2n1-c1nc(N2CCOCC2)c2nc(CN3CCC(C(C)(C)O)CC3)[nH]c2n1 [Example 702, 2-(1-((2-(2-methyl-1H-benzo[d]imidazol-1-yl)-6-morpholino-9H-purin-8-yl)methyl)piperidin-4-yl)propan-2-ol] | 28.6 | – | – | –
Cn1c(CN2CCN(C(C)(C)CO)CC2)nc2c(N3CCOCC3)nc(-n3c(CCO)nc4ccccc43)nc21 [Example 427, 2-(4-((2-(2-(2-hydroxyethyl)-1H-benzo[d]imidazol-1-yl)-9-methyl-6-morpholino-9H-purin-8-yl)methyl)piperazin-1-yl)-2-methylpropan-1-ol] | 56.7 | – | – | –
Cc1nc2ccccc2n1-c1nc(N2CCOCC2)c2oc(CN3CCN(C(C)(C)C(N)=O)CC3)cc2n1 [Example 240, 2-methyl-2-(4-((2-(2-methyl-1H-benzo[d]imidazol-1-yl)-4-morpholinofuro[3,2-d]pyrimidin-6-yl)methyl)piperazin-1-yl)propanamide] | 17.8 | 2.74 | 64 | –
